Results: ChEMBL document CHEMBL2424584, “Novel cross-link breaker based on zwitterion structure: synthesis, structure and druggability studies” (Eur J Med Chem, 2013)
The source made the active and inactive calls. The calls are words filed in the database; no cut-off is given here.

Species: Rattus norvegicus
Test: Reversible of increased arterial stiffness associated with diabetes in rat
Assay type: functional, organism-based

In the case of Cc1csc[n+]1CC(=O)[O-], the Activity was “Active”.
